{
  "source": "patent US20100272853A1",
  "about": "“Method of Increasing the Milk and/or Meat Quantity of Silage-Fed Animals” (BASF SE, priority 2007, published 2010)",
  "type_in_all_cases": "in vivo",
  "key": {"corn [1]": {"tested_on": "corn", "experiment": "Strip field trials Wisconsin 2006: corn forage quality by NIRS and MILK 2006 calculated milk production", "protocol": "(§1) Field trials were conducted as strip trials in farm fields in 2006 and 2008. A part of the field was treated with pyraclostrobin applied as Headline® whereas another part was left untreated. Headline® was applied at tassel emergence with 0.44 L/ha (110 g pyraclostrobin per ha) by aerial or ground application with a high clearance sprayer. Total spray volume was 93.5 to 187 L/ha for ground application and 18.7 to 46.7 L/ha for aerial application, respectively. Water was used as a carrier to prepare the spray mixture.\n(§2) Trials were harvested using a commercial forage harvester when the corn crop reached a dry matter content of about 30 to 40%. The treated and untreated area of the field was harvested separately to gain total biomass yield (ton/acre). Subsequently, the harvested plant material was used for producing silage.\n(§3) Forage samples from the harvested plants were taken from both the treated and untreated areas of the field. Samples were taken from the harvested material in the forage wagon following chopping with the commercial harvester. Multiple forage samples were taken for each of both treatments manually during harvesting in each of the trials, mixed in a larger container, and a subsample of 1.3 to 2.25 kg was taken. The subsamples were placed in plastic bags, sealed, cooled, and shipped immediately to Agsource Soil and Forage Laboratory, 106 North Cecil Street, Bonduel Wis. 54107, USA for Near Infrared Reflectance Spectroscopy (NIRS) analysis.\n(§4) Typically, samples for NIRS analysis are first dried at 55 to 65° C. for 24 h to 48 h prior to analysis. A representative subsample thereof is then dried at 105° C. for another 12 h to 24 h to evaluate the dry matter content of the samples. Subsequently, the remaining sample is grinded and homogenized and again a representative subsample is used for the NIRS analysis. The NIRS analysis procedure uses a commercially available calibration to estimate the values for each quality parameter based on the spectral reflectance information gained. The calibrations are based on the near infra red reflectance spectra of samples with known quality data. The comparison of the spectra of the samples with unknown quality data with the spectra of the known samples allows calculating estimates for each quality parameter of interest.\n(§5) NIRS analysis provided dry matter, crude protein, Acid Detergent Fibre (ADF), Neutral Detergent Fibre (NDF), and starch data. Calculations were included for moisture, adjusted crude protein, Total Digestible Nutrients (TDN), Net Energy for Lactation (NEL), Net Energy for Gain (NEG) and protein solubility.\n(§6) The information was then entered into the MILK 2006 University of Wisconsin Corn Silage evaluation system. Calculations of the milk production, energy content and digestibility per ton of corn biomass were carried out using a calculation method described in:\n(§7) a) Schwab, E. C., and R. D. Shaver. 2001: “Evaluation of corn silage nutritive value using MILK2000” (pages 21-24) in Proc. of 25th Forage Production and Use Symposium. WI Forage Council Annual Mtg. Eau Claire, Wis. b) Schwab, E. C., R. D. Shaver. J. G. Lauer, and J. G. Coors. 2003: “Estimating silage energy value and milk yield to rank corn hybrids”. J. Anim. Feed Sci. Technol. 109: 1-18. as well as in c) Undersander, D. J., W. T. Howard, and R. D. Shaver. 1993: “Milk per acre spreadsheet for combining yield and quality into a single term”. J. Prod. Ag. 6: 231 235.\nIn 2006 a total of 7 strip trials were conducted in Manitowoc County, Wis. Trial setup, treatments, application, harvesting, sampling and quality analysis including calculation of milk production per ton and per acre followed the procedure described before."}, "corn [2]": {"tested_on": "corn", "experiment": "Strip field trials New York 2006: corn forage quality by NIRS and MILK 2006 calculated milk production", "protocol": "as §1, §2, §3, §4, §5, §6, §7\nIn 2006 a total of 2 strip trials were conducted in Waterloo, N.Y. Trial setup, treatments, application, harvesting, sampling and quality analysis including calculation of milk production per ton and per acre followed the procedure described before."}, "corn hybrids": {"tested_on": "corn hybrids", "experiment": "Field trial Wisconsin 2008 with eight corn hybrids: calculated milk production per ton of harvested biomass", "conditions": "for Calculated milk production, Milk (kg/t): Unity, Wis., 2008", "protocol": "as §1, §2, §3, §4, §5, §6, §7\nEight different corn hybrid varieties were tested in a field trial in Unity, Wis., in 2008. Trial setup, application, harvesting, sampling and quality analysis including calculation of milk production per ton followed the procedure described before. Each hybrid was either treated with pyraclostrobin as described before or untreated. The quality data was converted into milk production per ton of harvested biomass for each hybrid as described above."}, "corn [3]": {"tested_on": "corn", "experiment": "Strip field trials Maryland 2006: corn forage quality by NIRS and MILK 2006 calculated milk production", "protocol": "as §1, §2, §3, §4, §5, §6, §7\nIn 2006 a total of 16 strip trials were conducted in Queen Ann County, MD. Trial setup, treatments, application, harvesting, sampling and quality analysis including calculation of milk production per ton and per acre followed the procedure described before."}, "[4]": {"conditions": "Wis. 2006, vs untreated part of field"}, "[5]": {"conditions": "average of 7 strip trials, Wis. 2006, 110 g pyraclostrobin per ha at tassel emergence"}, "[6]": {"conditions": "N.Y. 2006, vs untreated part of field"}, "[7]": {"conditions": "average of 2 strip trials, N.Y. 2006, 110 g pyraclostrobin per ha at tassel emergence"}, "[8]": {"conditions": "Example 4.5, hybrid N27B CBLLRW"}, "[9]": {"conditions": "MD 2006, vs untreated part of field"}, "[10]": {"conditions": "average of 16 strip trials, MD 2006, 110 g pyraclostrobin per ha at tassel emergence"}},
  "data": [
    {"compound": "COC(=O)N(OC)c1ccccc1COc1ccn(-c2ccc(Cl)cc2)n1", "note": "[Pyraclostrobin, pyraclostrobin]", "values": [
      {"measurement": "% CP, % Difference to Untreated", "setting": "corn [1]; [4]", "value": "+4.2%"},
      {"measurement": "% NDFD, % Difference to Untreated", "setting": "corn [1]; [4]", "value": "+13.2%"},
      {"measurement": "% Starch, % Difference to Untreated", "setting": "corn [1]; [4]", "value": "+13.7%"},
      {"measurement": "Milk (kg/t), % Difference to Untreated", "setting": "corn [1]; [4]", "value": "+14.0%"},
      {"measurement": "% ADF, % Difference to Untreated", "setting": "corn [1]; Wis. 2006, vs untreated part of field, decrease means more digestibility", "value": "−16.2", "unit": "%"},
      {"measurement": "% NDF, % Difference to Untreated", "setting": "corn [1]; Wis. 2006, vs untreated part of field, decrease means more energy content", "value": "−13.4", "unit": "%"},
      {"measurement": "crude protein content (% CP)", "setting": "corn [1]; average of 7 strip trials, Manitowoc County, Wis., 2006, 110 g pyraclostrobin per ha at tassel emergence", "value": 7.5, "unit": "%"},
      {"measurement": "acid detergent fiber content (% ADF)", "setting": "corn [1]; [5]", "value": 22.2, "unit": "%"},
      {"measurement": "in vitro 48-hour digestible NDF expressed as percent of NDF (% NDFD)", "setting": "corn [1]; [5]", "value": 67.6, "unit": "%"},
      {"measurement": "neutral detergent fiber content (% NDF)", "setting": "corn [1]; [5]", "value": 39.5, "unit": "%"},
      {"measurement": "starch content (% Starch)", "setting": "corn [1]; [5]", "value": 37.4, "unit": "%"},
      {"measurement": "calculated value for milk produced per ton of silage (Milk (kg/t))", "setting": "corn [1]; average of 7 strip trials, Wis. 2006, 110 g pyraclostrobin per ha, MILK 2006 calculation", "value": 1815, "unit": "kg/t"},
      {"measurement": "% CP, % Difference to Untreated", "setting": "corn [2]; [6]", "value": "+6.0%"},
      {"measurement": "% Dry Matter, % Difference to Untreated", "setting": "corn [2]; [6]", "value": "−2.2", "unit": "%"},
      {"measurement": "% NDFD, % Difference to Untreated", "setting": "corn [2]; [6]", "value": "+19.3%"},
      {"measurement": "% Starch, % Difference to Untreated", "setting": "corn [2]; [6]", "value": "+15.3%"},
      {"measurement": "Milk (kg/t), % Difference to Untreated", "setting": "corn [2]; [6]", "value": "+21.2%"},
      {"measurement": "% NDF, % Difference to Untreated", "setting": "corn [2]; N.Y. 2006, vs untreated part of field, decrease means more energy content", "value": "−16.8", "unit": "%"},
      {"measurement": "crude protein content (% CP)", "setting": "corn [2]; [7]", "value": 6.52, "unit": "%"},
      {"measurement": "in vitro 48-hour digestible NDF expressed as percent of NDF (% NDFD)", "setting": "corn [2]; [7]", "value": 51.30, "unit": "%"},
      {"measurement": "neutral detergent fiber content (% NDF)", "setting": "corn [2]; [7]", "value": 38.18, "unit": "%"},
      {"measurement": "starch content (% Starch)", "setting": "corn [2]; [7]", "value": 42.42, "unit": "%"},
      {"measurement": "calculated value for milk produced per ton of silage (Milk (kg/t))", "setting": "corn [2]; average of 2 strip trials, N.Y. 2006, 110 g pyraclostrobin per ha, MILK 2006 calculation", "value": 1653, "unit": "kg/t"},
      {"measurement": "dry matter content (% Dry Matter)", "setting": "corn [2]; average of 2 strip trials, Waterloo, N.Y., 2006, 110 g pyraclostrobin per ha at tassel emergence", "value": 36.45, "unit": "%"},
      {"measurement": "Milk, % Difference to Untreated", "setting": "corn hybrids; Example 4.1, hybrid DS93VT3", "value": "+9.6%"},
      {"measurement": "Calculated milk production, Milk (kg/t)", "setting": "corn hybrids; Example 4.1, hybrid DS93VT3", "value": 1608, "unit": "kg/t"},
      {"measurement": "Milk, % Difference to Untreated", "setting": "corn hybrids; Example 4.2, hybrid S4900VT", "value": "+17.5%"},
      {"measurement": "Calculated milk production, Milk (kg/t)", "setting": "corn hybrids; Example 4.2, hybrid S4900VT", "value": 1581, "unit": "kg/t"},
      {"measurement": "Milk, % Difference to Untreated", "setting": "corn hybrids; Example 4.3, hybrid 3114VT3", "value": "+7.1%"},
      {"measurement": "Calculated milk production, Milk (kg/t)", "setting": "corn hybrids; Example 4.3, hybrid 3114VT3", "value": 1648, "unit": "kg/t"},
      {"measurement": "Milk, % Difference to Untreated", "setting": "corn hybrids; Example 4.4, hybrid 491VT3", "value": "+10.9%"},
      {"measurement": "Calculated milk production, Milk (kg/t)", "setting": "corn hybrids; Example 4.4, hybrid 491VT3", "value": 1643, "unit": "kg/t"},
      {"measurement": "Milk, % Difference to Untreated", "setting": "corn hybrids; [8]", "value": "+22.0%"},
      {"measurement": "Calculated milk production, Milk (kg/t)", "setting": "corn hybrids; [8]", "value": 1549, "unit": "kg/t"},
      {"measurement": "Milk, % Difference to Untreated", "setting": "corn hybrids; Example 4.6, hybrid DS93VT3", "value": "+20.9%"},
      {"measurement": "Calculated milk production, Milk (kg/t)", "setting": "corn hybrids; Example 4.6, hybrid DS93VT3", "value": 1600, "unit": "kg/t"},
      {"measurement": "Milk, % Difference to Untreated", "setting": "corn hybrids; Example 4.7, hybrid DKC48-37", "value": "+8.8%"},
      {"measurement": "Calculated milk production, Milk (kg/t)", "setting": "corn hybrids; Example 4.7, hybrid DKC48-37", "value": 1684, "unit": "kg/t"},
      {"measurement": "Milk, % Difference to Untreated", "setting": "corn hybrids; Example 4.8, hybrid DS93VT3", "value": "+8.3%"},
      {"measurement": "Calculated milk production, Milk (kg/t)", "setting": "corn hybrids; Example 4.8, hybrid DS93VT3", "value": 1632, "unit": "kg/t"},
      {"measurement": "milk production per ton of harvested corn biomass, result in words", "setting": "corn hybrids; across the eight tested different corn hybrids", "value": "improves the milk production per ton of harvested corn biomass"},
      {"measurement": "% CP, % Difference to Untreated", "setting": "corn [3]; [9]", "value": "+6.0%"},
      {"measurement": "% NDFD, % Difference to Untreated", "setting": "corn [3]; [9]", "value": "+3.9%"},
      {"measurement": "% Starch, % Difference to Untreated", "setting": "corn [3]; [9]", "value": "+10.2%"},
      {"measurement": "Milk (kg/t), % Difference to Untreated", "setting": "corn [3]; [9]", "value": "+5.9%"},
      {"measurement": "TDN % of DM, % Difference to Untreated", "setting": "corn [3]; [9]", "value": "+3.6%"},
      {"measurement": "% NDF, % Difference to Untreated", "setting": "corn [3]; MD 2006, vs untreated part of field, decrease means more energy content", "value": "−4.8", "unit": "%"},
      {"measurement": "in vitro 48-hour digestible NDF expressed as percent of NDF (% NDFD)", "setting": "corn [3]; [10]", "value": 60.6, "unit": "%"},
      {"measurement": "neutral detergent fiber content (% NDF)", "setting": "corn [3]; [10]", "value": 45.9, "unit": "%"},
      {"measurement": "starch content (% Starch)", "setting": "corn [3]; [10]", "value": 28.2, "unit": "%"},
      {"measurement": "total digestible nutrients as percent of dry matter (TDN % of DM)", "setting": "corn [3]; [10]", "value": 70.0, "unit": "%"},
      {"measurement": "calculated value for milk produced per ton of silage (Milk (kg/t))", "setting": "corn [3]; average of 16 strip trials, MD 2006, 110 g pyraclostrobin per ha, MILK 2006 calculation", "value": 1730, "unit": "kg/t"},
      {"measurement": "crude protein content (% CP)", "setting": "corn [3]; average of 16 strip trials, Queen Ann County, MD, 2006, Headline 0.44 L/ha (110 g pyraclostrobin per ha) at tassel emergence", "value": 7.1, "unit": "%"}
    ]}
  ]
}
